# In US20100158863A1, “TRIAZOLOANILINOPYRIMIDINE DERIVATIVES FOR USE AS ANTIVIRAL AGENTS” (ARROW THERAPEUTICS LIMITED, priority 2006, published 2010):
# Tests used:
# [1] = test system: HCV replicon 1b (Huh-9B); experiment: HCV replicon activity, luciferase detection on the replicon plate; type: cell-based, HCV genotype 1b; details: Huh-9B replicon cells, luciferase signal
# Text: 1b replicon (Huh.7) described in Science 285, 110-113. • Huh-9B: liver cell line with persistent bicistronic HCV genotype 1b coding sequence: [I3891ucubineo—3-3′_ET] includes firefly luciferase-ubiquitin-neomycin phosphotransferase fusion protein and EMCV-IRES driven non-structural HCV (NS3 to NS5B) coding sequence including cell culture adaptive mutations E1202G, […] and K1846T (Lohmann et al, 2001).
# This assay is set up using all 96 wells of flat-bottomed 96-well plates. Plates are set up one day before addition of compounds. The assay then runs for 4 days with ELISA development taking place on the 5th day.
# Exponentially growing Huh-9B monolayers are washed with sterile PBS to remove serum and treated with trypsin to detach cells from the flask.
# (§1) Cells are suspended in growth media and counted using a haemocytometer. Duplicate 96 well plates are seeded with Huh-9B at a density of 10^4 cells/well in a total volume of 100 μl/well of growth medium without antibiotics as depicted below.
# (§2) One of the plates is an opaque white 96-well plate used for IC50 determination based on the luciferase signal (referred as replicon plate), the other one is a clear 96-well plate used for a parallel determination of drug toxicity by methylene blue staining (referred as tox plate). Wells G12 and H12 of the tox plate are left without cells to use as buffer alone background reading.
# Plates are then incubated at 37° C. in a 5% CO2 environment for 24 h to obtain a 90% confluent cell monolayer.
# (§3) Doubling dilutions of each compound are generated in a separate 96 high volume capacity round bottom plate to twice their initial concentration in the assay using growth medium without antibiotics.
# Five compounds (C1 to C5) are tested on each assay plate as illustrated below plus a control compound that is also included in each plate.
# (§4) Compounds are tested across an 8 point doubling dilution series. The initial dilution of each compound to be tested is 25 μM and 12.5 μM for the control compound.
# DMSO only wells (A1 and A2) at 1% provide the signal corresponding to maximal (100%) luciferase detection. […] The signal from the DMSO wells at 1% (maximal signal) constitutes the assay window.
# (§5) For each compound dilution on the 2×96-well dilution plate 100 μl are transferred using a multichannel pipette onto the replicon and tox plates mirror wells which contain […] of medium to obtain the desired final concentration.
# Media is tapped out from wells into Virkon and plates are washed once in warm PBS and tapped dry gently.
# For each well 20 μl of lysis buffer is added by multichannel pipette. Lysates are stable at this point for several hours.
# Luciferase assay buffer is placed it in the luminometer (Lmax, Molecular Devices).
# The M injector is primed with 4×300 μl of luciferase assay buffer. The plate to be analyzed is placed in the luminometer and […] of luciferase assay buffer injected automatically into one well followed by 4 seconds integration read out.
# After one second delay a second well is injected with 100 μl of luciferase assay buffer followed by 4 seconds integration read out and so forth until all 96 wells are analyzed.
# Once the reading is finished the luminometer injection system is washed with deionised water.
# The data is acquired using the SOFTmax for Lmax Pro software package.
# (§6) SOFTmax data files are exported as Excel or text files. A standard four parameters non-linear regression analysis of the data obtained from each compound is then used to calculate the IC50.
# (§7) In the above analysis all replicate wells are meaned. The % of control is then calculated for each concentration point as a percentage of the DMSO control wells.
# [2] = test system: Huh-9B; experiment: Toxicity determination on the tox plate by methylene blue staining; type: cell-based; details: Huh-9B cells, parallel tox plate
# Description: as §1, §2, §3, §4, §5
# Media is tapped out from wells into Virkon and plates tapped dry gently. To each well 100 μl of 0.5% solution of methylene blue in 50% methanol is added to all wells including blanks (G12 and H12). Plates are left at RT for a minimum of 1 h. Plates are then rinsed gently by immersing in a plastic box with water, tapped dry gently and left open until they are fully dry. Dye is solubilized adding 100 μl of 1% lauroylsarcosine to each well and shaking for 1 h at 37° C. Plates are read on the SpectraMax spectrophotometer at 620 nm wavelength using the SOFTmax Pro software package.
# as §6, §7
Molecule,IC50 ([1]; Hepatitis C virus) [µM],Replicon TD50 [2],IC50 [1] [µM]
"COc1ccc(-c2ccc3ncnc(Nc4ccc(-n5cncn5)cc4C)c3c2)cc1OC [Example 27, [6-(3,4-Dimethoxy-phenyl)-quinazolin-4-yl]-(2-methyl-4-[1,2,4]triazol-1-yl-phenyl)-amine]",< 5,* (* <25 μM),–
"CC(C)(C)c1ccc2ncnc(Nc3ccc(-n4cncn4)cc3)c2c1 [Example 2, (6-tert-Butyl-quinazolin-4-yl)-(4-[1,2,4]triazol-1-yl-phenyl)-amine]",5 to 20,** (** >25 μM),–
"c1nc(Nc2ccc(-n3cncn3)cc2)c2cc(-c3ccc4c(c3)OCCO4)ccc2n1 [Example 15, [6-(2,3-Dihydro-benzo[1,4]dioxin-6-yl)-quinazolin-4-yl]-(4-[1,2,4]triazol-1-yl-phenyl)-amine]",< 5,** (** >25 μM),–
Cc1cc(-n2cncn2)ccc1Nc1ncnc2ccc(Br)cc12 [Example 33],–,** (** >25 μM),< 5
"Fc1cc(-c2ccc3ncnc(Nc4ccc(-n5cncn5)cc4)c3c2)ccc1OCCCN1CCCC1 [Example 25, {6-[3 fluoro-4-(3-pyrrolidin-1-yl-propoxy)-phenyl]-quinazoline-4-yl}-(4-[1,2,4]triazole-1-yl-phenyl)amine]",< 5,* (* <25 μM),–
c1cc(COc2ccc(-c3ccc4ncnc(Nc5ccc(-n6cncn6)cc5)c4c3)cc2)ccn1 [Example 13],–,* (* <25 μM),5 to 20
"CC(C)Oc1cc(-c2ccc3ncnc(Nc4ccc(-n5cncn5)cc4)c3c2)ccc1F [Example 24, [6-(4-Fluoro-3-isopropoxy-phenyl)-quinazolin-4-yl]-(4-[1,2,4]triazol-1-yl-phenyl)-amine]",< 5,** (** >25 μM),–
"COc1ccc(-c2ccc3ncnc(Nc4ccc(-n5nc(C(=O)N(C)C)nc5C)cc4)c3c2)cc1OC [Example 30, 1-{-4-[6-(3,4-Dimethoxy-phenyl)-quinazolin-4-ylamino]-phenyl}-5-methyl-1H-[1,2,4]triazole-3-carboxylic acid dimethylamide]",< 5,* (* <25 μM),–
"COc1ccc(-c2ccc3ncnc(Nc4ccc(-n5cncn5)cc4)c3c2)cc1OC(C)C [Example 23, [6-(3-Isopropoxy-4-methoxy-phenyl)-quinazolin-4-yl]-(4-[1,2,4]triazol-1-yl-phenyl)-amine]",< 5,* (* <25 μM),–
"CN(C)CCN(C)CCOc1ccc(-c2ccc3ncnc(Nc4ccc(-n5cncn5)cc4)c3c2)cc1F [Example 22, N-(2-{2-Fluoro-4-[4-(4-[1,2,4]triazol-1-yl-phenylamino)-quinazolin-6-yl]-phenoxy}-ethyl)-N,N′,N′-trimethyl-ethane-1,2-diamine]",< 5,* (* <25 μM),–
"COCCOc1ccc(-c2ccc3ncnc(Nc4ccc(-n5nc(C(=O)N6CCN(C)CC6)nc5C)cc4)c3c2)cc1F [Example 34, [1-(4-{6-[3-Fluoro-4-(2-methoxy-ethoxy)-phenyl]-quinazolin-4-ylamino}-phenyl)-5-methyl-1H-[1,2,4]triazole-3-yl]-(4-methyl-piperazin-1-yl)methanone]",< 5,** (** >25 μM),–
"COc1ccc(-c2ccc3ncnc(Nc4ccc(-n5nc(C(=O)O)nc5C)cc4)c3c2)cc1OC [Example 29, 1-(4-{6-[3,4-Dimethoxy-phenyl]-quinazolin-4-ylamino}-phenyl)-5-methyl-1H-[1,2,4]triazole-3-carboxylic acid]",5 to 20,** (** >25 μM),–
"COc1cc2c(Nc3ccc(-n4cncn4)cc3)ncnc2cc1OCCCN1CCOCC1 [Example 4, [6-Methoxy-7-(3-morpholin-4-yl-propoxy)-quinazolin-4-yl]-(4-[1,2,4]triazol-1-yl-phenyl)-amine]",5 to 20,** (** >25 μM),–
"Fc1ccc(-c2ccc3ncnc(Nc4ccc(-n5cncn5)cc4)c3c2)cc1F [Example 5, [6-(3,4-Difluoro-phenyl)-quinazolin-4-yl]-(4-[1,2,4]triazol-1-yl-phenyl)-amine]",< 5,** (** >25 μM),–
"CCOc1ccc(-c2ccc3ncnc(Nc4ccc(-n5cncn5)cc4)c3c2)cc1F [Example 8, [6-(4-Ethoxy-3-fluoro-phenyl)-quinazolin-4-yl]-(4-[1,2,4]triazol-1-yl-phenyl)-amine]",< 5,** (** >25 μM),–
"1-(4-{6-[3-Fluoro-4-(2-methoxy-ethoxy)-phenyl]-quinazolin-4-ylamino}-phenyl)-5-methyl-1H-[1,2,4]triazole-3-carboxylic acid [Example 28]",–,** (** >25 μM),5 to 20
c1nc(Nc2ccc(-n3cncn3)cc2)c2cc(-c3ccc(N4CCOCC4)cc3)ccc2n1 [Example 14],–,* (* <25 μM),< 5
"COc1cc2c(Nc3ccc(-n4cncn4)cc3)ncnc2cc1OCCCCl [Example 3, [7-(3-Chloro-propoxy)-6-methoxy-quinazolin-4-yl]-(4-[1,2,4]triazol-1-yl-phenyl)amine]",< 5,** (** >25 μM),–
"CNC(=O)c1nc(C)n(-c2ccc(Nc3ncnc4ccc(-c5ccc(OCCOC)c(F)c5)cc34)cc2)n1 [Example 31, 1-(4-{6-[3-Fluoro-4-(2-methoxy-ethoxy)-phenyl]-quinazolin-4-ylamino}-phenyl)-5-methyl-1H-[1,2,4]triazole-3-carboxylic acid methylamide]",< 5,** (** >25 μM),–
"Fc1cc(-c2ccc3ncnc(Nc4ccc(-n5cncn5)cc4)c3c2)ccc1Cl [Example 6, [6-(4-Chloro-3-fluoro-phenyl)-quinazolin-4-yl]-(4-[1,2,4]triazol-1-yl-phenyl)-amine]",> 20,** (** >25 μM),–
c1coc(-c2ccc3ncnc(Nc4ccc(-n5cncn5)cc4)c3c2)c1 [Example 19],–,** (** >25 μM),< 5
"CN(C)CCOc1ccc(-c2ccc3ncnc(Nc4ccc(-n5cncn5)cc4)c3c2)cc1 [Example 12, {6-[4-(2-Dimethylamino-ethoxy)-phenyl]-quinazolin-4-yl}-(4-[1,2,4]triazol-1-yl-phenyl)-amine]",< 5,* (* <25 μM),–
"Ic1ccc2ncnc(Nc3ccc(-n4cncn4)cc3)c2c1 [Example 1, (6-Iodo-quinazolin-4-yl)-(4-[1,2,4]triazol-1-yl-phenyl)-amine]",< 5,* (* <25 μM),–
"COCCOc1ccc(-c2ccc3ncnc(Nc4ccc(-n5nc(C(=O)N(C)C)nc5C)cc4)c3c2)cc1F [Example 32, 1-(4-{6-[3-Fluoro-4-(2-methoxy-ethoxy)-phenyl]-quinazolin-4-ylamino}-phenyl)-5-methyl-1H-[1,2,4]triazole-3-carboxylic acid dimethylamide]",< 5,* (* <25 μM),–
"COc1ncc(-c2ccc3ncnc(Nc4ccc(-n5cncn5)cc4)c3c2)cn1 [Example 16, [6-(2-Methoxy-pyrimidin-5-yl)-quinazolin-4-yl]-(4-[1,2,4]triazol-1-yl-phenyl)-amine]",< 5,** (** >25 μM),–
"Cc1csc(-c2ccc3ncnc(Nc4ccc(-n5cncn5)cc4)c3c2)c1 [Example 18, [6-(4-Methyl-thiophen-2-yl)-quinazolin-4-yl]-(4-[1,2,4]triazol-1-yl-phenyl)-amine]",< 5,** (** >25 μM),–
